According to US20100004267A1, “LIQUID PREPARATION” (ASUBIO PHARMA CO., LTD., priority 2006, published 2010):
Read-outs that look alike come from different tables or passages of the source.

Experiments:
[1] = Examination of solubilizing agent: solubility of SUN N8075 (Test example 1); type: physicochemical; conditions: for solubility at 30 min: phosphate-buffered saline with solubilizing agent, 24 °C, kinetic from dmso stock, read-out: Concentration (solubility of SUN N8075)
Procedure: 8 mg/mL aqueous solution of SUN N8075 was prepared. On the other hand, for each solubilizing agent, an aqueous solution having approximately 0.4% of solubilizing agent was prepared.
10 mL of SUN N8075 aqueous solution and 10 mL of solution of each solubilizing agent were mixed to give Mixture A, and Mixture A was filtered through a filter of 0.22 μm.
6.24 g of sodium dihydrogen phosphate and 16.4 g of sodium chloride were weighed and water was added to make the volume precisely 1,000 mL. To this solution, 1 mol/L sodium hydroxide test solution was added dropwise and the pH value was adjusted to 7.4, which was named Mixture B.
Mixture of each 2.5 mL of Mixture A and Mixture B was provided as a test solution (in each test solution, the concentration of SUN N8075 corresponds to 2 mg/mL, and the concentration of solubilizing agent corresponds to 0.1%).
As for a solubilizing agent of which degree of improving solubility of SUN N8075 was high, tests with concentrations of the added solubilizing agent varied were additionally executed in accordance with the method as described above.

[2] = Stability test based on difference of pH buffer, 6 months (Test example 4); type: physicochemical; parameters: key to Insoluble materials: ◯ means absence of insoluble matters; X: × means presence of insoluble matters
Procedure: According to experimental formulations and target pH shown in Table 4 below, liquid preparations were prepared in the following manner.
After filtering this solution under reduced pressure, 20 mL of this solution was filled into a brown ampule subjected to inner wall treatment by SiO2 glass film (Silicoat ampule; brown 20 mL-volume; available from FUJI GLASS CO., LTD.), and then the ampule was sealed. Using high-pressure steam sterilizer (autoclave), the ampule was autoclaved in a setting condition: 121° C./24 minutes.
The samples were stored at 5° C., 25° C./60% relative humidity (RH), […] were evaluated in time series until a lapse of 6 months, after evaluating presence/absence of insoluble foreign matters after autoclave sterilization. For evaluation of insoluble foreign matters, an appearance checker was used and observation was conducted under 1,000 Lux. […]
Likewise the foregoing (1) liquid preparation with acetic acid buffer system (for pH adjustment, 1 mol/L or 0.1 mol/L hydrochloric acid was used), each sample was prepared according to the experimental formulations and target pH shown in Table 4 below, and each sample was stored at 5° C., 25° C./60% relative humidity (RH), […] were evaluated in time-series until a lapse of 6 months, after evaluating presence/absence of insoluble foreign matters after autoclave sterilization. […]

[3] = acetic acid/sodium acetate buffer, Captisol 10.0%, pH at preparation 3.8 (Table 4 no. 3), 40° C./75% RH/6 months
[4] = acetic acid/sodium acetate buffer, Captisol 10.0%, pH at preparation 4.2 (Table 4 no. 4), 40° C./75% RH/6 months
[5] = glycine buffer, Captisol 7.5%, pH at preparation 3.8 (Table 4 no. 5), 40° C./75% RH/6 months
[6] = glycine buffer, Captisol 7.5%, pH at preparation 4.2 (Table 4 no. 6), 40° C./75% RH/6 months
[7] = glycine buffer, Captisol 10.0%, pH at preparation 3.8 (Table 4 no. 7), 40° C./75% RH/6 months
[8] = glycine buffer, Captisol 10.0%, pH at preparation 4.2 (Table 4 no. 8), 40° C./75% RH/6 months

Appearance of solution ([1]; Glycerin 0.1%, pH 6.8): colorless and clear | Appearance of solution ([1]; HCO-60 0.1%, pH 6.8): colorless and clear | Appearance of solution ([1]; HCO-60 0.2%, pH 6.9): colorless and clear | Appearance of solution ([1]; HCO-60 0.5%, pH 6.8): colorless and clear | Appearance of solution ([1]; Human serum albumin 0.1%, pH 6.8): colorless and clear | Appearance of solution ([1]; Macrogol 4000 0.1%, pH 6.8): colorless and clear | Appearance of solution ([1]; Mannitol 0.1%, pH 6.8): colorless and clear | Appearance of solution ([1]; Nicotinic amide 0.1%, pH 6.8): colorless and clear | Appearance of solution ([1]; No additive, pH 6.8): colorless and clear | Appearance of solution ([1]; Propylene glycol 0.1%, pH 6.9): colorless and clear | Appearance of solution ([1]; Tween80 0.1%, pH 6.8): clouded | Appearance of solution ([1]; Tween80 0.2%, pH 6.8): clouded | Appearance of solution ([1]; Tween80 0.5%, pH 6.8): clouded | Appearance of solution ([1]; Tween80 1.0%, pH 6.8): colorless and clear | solubility at 30 min ([1]; pH 6.5, aqueous with cosolvent or surfactant or cyclodextrin, β-Cyclodextrin derivative 10%, pH 6.5): 4.85 mg/mL | solubility at 30 min ([1]; pH 6.8, aqueous with cosolvent or surfactant or cyclodextrin, HCO-60 0.5%, pH 6.8): 0.395 mg/mL | solubility at 30 min ([1]; pH 6.8, aqueous with cosolvent or surfactant or cyclodextrin, HCO-60 (polyoxyethylene hardened castor oil) 0.1%, pH 6.8): 0.184 mg/mL | solubility at 30 min ([1]; pH 6.8, aqueous with cosolvent or surfactant or cyclodextrin, Human serum albumin 0.1%, pH 6.8): 0.014 mg/mL | solubility at 30 min ([1]; pH 6.8, aqueous with cosolvent or surfactant or cyclodextrin, Tween80 0.1%, pH 6.8): 0.745 mg/mL | solubility at 30 min ([1]; pH 6.8, aqueous with cosolvent or surfactant or cyclodextrin, Tween80 0.2%, pH 6.8): 1.83 mg/mL | solubility at 30 min ([1]; pH 6.8, aqueous with cosolvent or surfactant or cyclodextrin, Tween80 0.5%, pH 6.8): 1.79 mg/mL | solubility at 30 min ([1]; pH 6.8, aqueous with cosolvent or surfactant or cyclodextrin, Tween80 1.0%, pH 6.8): 1.82 mg/mL | solubility at 30 min ([1]; pH 6.8, aqueous with cosolvent or surfactant or cyclodextrin, β-Cyclodextrin derivative 0.5%, pH 6.8): 0.098 mg/mL | solubility at 30 min ([1]; pH 6.8, aqueous with cosolvent or surfactant or cyclodextrin, β-Cyclodextrin derivative 1.0%, pH 6.8): 0.24 mg/mL | solubility at 30 min ([1]; pH 6.9, aqueous with cosolvent or surfactant or cyclodextrin, HCO-60 0.2%, pH 6.9): 0.334 mg/mL | solubility at 30 min ([1]; pH 6.9, aqueous with cosolvent or surfactant or cyclodextrin, β-Cyclodextrin 0.1%, pH 6.9): 0.026 mg/mL | solubility at 30 min ([1]; pH 6.9, aqueous with cosolvent or surfactant or cyclodextrin, β-Cyclodextrin derivative 5.0%, pH 6.9): 1.43 mg/mL | Appearance of solution ([1]; β-Cyclodextrin 0.1%, pH 6.9): colorless and clear | Appearance of solution ([1]; β-Cyclodextrin derivative 0.5%, pH 6.8): colorless and clear | Appearance of solution ([1]; β-Cyclodextrin derivative 1.0%, pH 6.8): colorless and clear | Appearance of solution ([1]; β-Cyclodextrin derivative 5.0%, pH 6.9): colorless and clear | Appearance of solution ([1]; β-Cyclodextrin derivative 10%, pH 6.5): colorless and clear | Appearance of solution ([1]; β-Cyclodextrin derivative (β-cyclodextrin sulfobutyl ether sodium salt) 0.1%, pH 6.8): colorless and clear | Insoluble materials ([2]; acetic acid/sodium acetate buffer, Captisol 7.5%, pH at preparation 3.8 (Table 4 no. 1), 5° C./6 months): ◯ | Storage period at which generation of insoluble matters was observed ([2]; acetic acid/sodium acetate buffer, Captisol 7.5%, pH at preparation 3.8 (Table 4 no. 1), 25° C./60% RH): (6 months) | Insoluble materials ([2]; acetic acid/sodium acetate buffer, Captisol 7.5%, pH at preparation 3.8 (Table 4 no. 1), 25° C./60% RH/6 months): X | Insoluble materials ([2]; acetic acid/sodium acetate buffer, Captisol 7.5%, pH at preparation 3.8 (Table 4 no. 1), 40° C./60% RH/6 months): ◯ | pH ([2]; acetic acid/sodium acetate buffer, Captisol 7.5%, pH at preparation 3.8 (Table 4 no. 1), 40° C./75% RH/6 months): 2.74 | Insoluble materials ([2]; acetic acid/sodium acetate buffer, Captisol 7.5%, pH at preparation 3.8 (Table 4 no. 1), just after autoclave sterilization): ◯ | Insoluble materials ([2]; acetic acid/sodium acetate buffer, Captisol 7.5%, pH at preparation 4.2 (Table 4 no. 2), 5° C./6 months): ◯ | Insoluble materials ([2]; acetic acid/sodium acetate buffer, Captisol 7.5%, pH at preparation 4.2 (Table 4 no. 2), 25° C./60% RH/6 months): ◯ | Storage period at which generation of insoluble matters was observed ([2]; acetic acid/sodium acetate buffer, Captisol 7.5%, pH at preparation 4.2 (Table 4 no. 2), 40° C./60% RH): (3 months) | Insoluble materials ([2]; acetic acid/sodium acetate buffer, Captisol 7.5%, pH at preparation 4.2 (Table 4 no. 2), 40° C./60% RH/6 months): X | pH ([2]; acetic acid/sodium acetate buffer, Captisol 7.5%, pH at preparation 4.2 (Table 4 no. 2), 40° C./75% RH/6 months): 2.96 | Insoluble materials ([2]; acetic acid/sodium acetate buffer, Captisol 7.5%, pH at preparation 4.2 (Table 4 no. 2), just after autoclave sterilization): ◯ | Insoluble materials ([2]; acetic acid/sodium acetate buffer, Captisol 10.0%, pH at preparation 3.8 (Table 4 no. 3), 5° C./6 months): ◯ | Insoluble materials ([2]; acetic acid/sodium acetate buffer, Captisol 10.0%, pH at preparation 3.8 (Table 4 no. 3), 25° C./60% RH/6 months): ◯ | Insoluble materials [2, 3]: ◯ | pH [2, 3]: 2.60 | Insoluble materials ([2]; acetic acid/sodium acetate buffer, Captisol 10.0%, pH at preparation 3.8 (Table 4 no. 3), just after autoclave sterilization): ◯ | Insoluble materials ([2]; acetic acid/sodium acetate buffer, Captisol 10.0%, pH at preparation 4.2 (Table 4 no. 4), 5° C./6 months): ◯ | Insoluble materials ([2]; acetic acid/sodium acetate buffer, Captisol 10.0%, pH at preparation 4.2 (Table 4 no. 4), 25° C./60% RH/6 months): ◯ | Insoluble materials [2, 4]: ◯ | pH [2, 4]: 2.82 | Insoluble materials ([2]; acetic acid/sodium acetate buffer, Captisol 10.0%, pH at preparation 4.2 (Table 4 no. 4), just after autoclave sterilization): ◯ | Insoluble materials ([2]; glycine buffer, Captisol 7.5%, pH at preparation 3.8 (Table 4 no. 5), 5° C./6 months): ◯ | Insoluble materials ([2]; glycine buffer, Captisol 7.5%, pH at preparation 3.8 (Table 4 no. 5), 25° C./60% RH/6 months): ◯ | Insoluble materials [2, 5]: ◯ | pH [2, 5]: 3.46 | Insoluble materials ([2]; glycine buffer, Captisol 7.5%, pH at preparation 3.8 (Table 4 no. 5), just after autoclave sterilization): ◯ | Insoluble materials ([2]; glycine buffer, Captisol 7.5%, pH at preparation 4.2 (Table 4 no. 6), 5° C./6 months): ◯ | Insoluble materials ([2]; glycine buffer, Captisol 7.5%, pH at preparation 4.2 (Table 4 no. 6), 25° C./60% RH/6 months): ◯ | Insoluble materials [2, 6]: ◯ | pH [2, 6]: 3.73 | Insoluble materials ([2]; glycine buffer, Captisol 7.5%, pH at preparation 4.2 (Table 4 no. 6), just after autoclave sterilization): ◯ | Insoluble materials ([2]; glycine buffer, Captisol 10.0%, pH at preparation 3.8 (Table 4 no. 7), 5° C./6 months): ◯ | Insoluble materials ([2]; glycine buffer, Captisol 10.0%, pH at preparation 3.8 (Table 4 no. 7), 25° C./60% RH/6 months): ◯ | Insoluble materials [2, 7]: ◯ | pH [2, 7]: 3.49 | Insoluble materials ([2]; glycine buffer, Captisol 10.0%, pH at preparation 3.8 (Table 4 no. 7), just after autoclave sterilization): ◯ | Insoluble materials ([2]; glycine buffer, Captisol 10.0%, pH at preparation 4.2 (Table 4 no. 8), 5° C./6 months): ◯ | Insoluble materials ([2]; glycine buffer, Captisol 10.0%, pH at preparation 4.2 (Table 4 no. 8), 25° C./60% RH/6 months): ◯ | Insoluble materials [2, 8]: ◯ | pH [2, 8]: 3.74 | Insoluble materials ([2]; glycine buffer, Captisol 10.0%, pH at preparation 4.2 (Table 4 no. 8), just after autoclave sterilization): ◯
SMILES: Cc1cc(OC[C@@H](O)CN2CCN(c3ccc(Cc4ccc(F)cc4)cc3)CC2)c(C)c(C)c1N [SUN N8075, (2S)-1-(4-amino-2,3,5-trimethylphenoxy)-3-{4-[4-(4-fluorobenzyl)phenyl]-1-piperazinyl}-2-propanol dimethane sulfonate]
